The source of these data is PMC5443610 (Journal of Medicinal Chemistry, 2017).

For one data set, the target named is T1, BRPF3 (Homo sapiens, UniProt Q9ULD4).
T1 sequence (Q9ULD4 589-693 limits assumed): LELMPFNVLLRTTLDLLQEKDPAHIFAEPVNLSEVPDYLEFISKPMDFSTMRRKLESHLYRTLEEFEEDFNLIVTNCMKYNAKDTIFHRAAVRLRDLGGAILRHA
As to the kind of experiment: AlphaScreen. Format: binding. On the technique in general: Bead proximity is the source of the signal in Alpha formats.

The next data set deals with CREBBP BD (Homo sapiens, UniProt Q92793). As to the kind of experiment: Isothermal titration calorimetry. The class given is binding. On the technique in general: In ITC the heat of successive injections is recorded.
Chain of CREBBP BD (Q92793 1081-1197): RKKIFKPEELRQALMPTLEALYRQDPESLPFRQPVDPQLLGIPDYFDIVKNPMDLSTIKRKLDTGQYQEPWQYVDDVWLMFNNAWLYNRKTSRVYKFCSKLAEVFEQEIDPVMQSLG
The nature of data set [1]: In vivo rat pharmacokinetics. Also noted: species or system Wistar rat.
The target of another data set is T2, BRPF1 (Homo sapiens, UniProt P55201).
T2 sequence (P55201 628-732 limits assumed): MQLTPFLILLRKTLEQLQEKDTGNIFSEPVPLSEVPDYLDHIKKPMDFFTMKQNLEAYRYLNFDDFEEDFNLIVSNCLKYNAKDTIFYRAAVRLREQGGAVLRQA
The data set is described as follows: AlphaScreen. Format: binding.

Data set [2] in a line: Metabolic stability in liver microsomes. As to conditions: dog liver microsomes. The class given is in vitro ADME.
A short description of another data set: Caco2 permeability assay. Format: in vitro ADME. The following applies: human, Caco-2, pH 7.2, Caco2 Papp (B-A), 2 μM, 2 h. In general terms: Caco-2 monolayers are a common model of the intestinal barrier.
Another data set has as its target T3, TAF1L BD2 (Homo sapiens, UniProt Q8IZX4).
T3 sequence (Q8IZX4 1517-1649): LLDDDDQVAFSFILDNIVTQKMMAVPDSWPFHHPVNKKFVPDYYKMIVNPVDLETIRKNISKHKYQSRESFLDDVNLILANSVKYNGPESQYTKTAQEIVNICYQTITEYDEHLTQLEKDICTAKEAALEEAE
As to the kind of experiment: biochemical. Format: binding.

The next data set deals with T4, BRPF1 BD (Homo sapiens, UniProt P55201).
T4 sequence (P55201 626-740): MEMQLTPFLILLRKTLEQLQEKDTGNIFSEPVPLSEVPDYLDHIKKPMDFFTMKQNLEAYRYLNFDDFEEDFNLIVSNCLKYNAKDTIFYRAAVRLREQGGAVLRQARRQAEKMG
As to the kind of experiment: TR-FRET binding competition assay.

Data set [3] can be described thus: Metabolic stability in liver microsomes. The class given is in vitro ADME. As to conditions: human liver microsomes.
The next data set addresses T5, BRPF3 BD (Homo sapiens, UniProt Q9ULD4).
T5 sequence (Q9ULD4 592-711): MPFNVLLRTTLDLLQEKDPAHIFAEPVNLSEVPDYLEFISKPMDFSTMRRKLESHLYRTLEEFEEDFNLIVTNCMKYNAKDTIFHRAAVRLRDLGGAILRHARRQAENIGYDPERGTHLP
As to the kind of experiment: TR-FRET binding competition assay.

Data set [4] in a line: Metabolic stability in liver microsomes. The class given is in vitro ADME. As to conditions: mouse liver microsomes.
A further data set relates to 68 potential targets. The data set is described as follows: LeadProfilingScreen. The following applies: 10 μM compound.
Data set [5] is described as follows: Metabolic stability in liver microsomes. Format: in vitro ADME. The following applies: rat liver microsomes.
For the next data set, the target named is CREBBP (Homo sapiens, UniProt Q92793). The data set is described as follows: AlphaScreen. Format: binding.
Chain of CREBBP (Q92793 1081-1197): as the sequence (Q92793 1081-1197) above
A short description of data set [6]: Metabolic stability in hepatocytes. Format: in vitro ADME. The following applies: rat hepatocytes.
For the next data set, the target named is T6, BRPF1 BD/H4 (Homo sapiens, UniProt P55201).
T6 sequence (P55201 626-732): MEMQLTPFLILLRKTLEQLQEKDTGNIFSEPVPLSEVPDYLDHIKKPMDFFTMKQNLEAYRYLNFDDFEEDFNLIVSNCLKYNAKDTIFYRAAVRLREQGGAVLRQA
The data set is described as follows: NanoBRET cellular assay. Format: cell-based.

The test system of data set [7] is panel containing over 300 kinases. The data set is described as follows: Kinase panel. The class given is biochemical. The following applies: 10 μM, all cases.
The test system of a further data set is Caco2 cells. The data set is described as follows: Caco2 permeability assay. The class given is in vitro ADME.
The nature of data set [8]: High-throughput aqueous solubility from DMSO solution. The class given is physicochemical. As to conditions: pH 6.5 buffer.
Data set [9] in a line: Reversed-phase HPLC lipophilicity. Format: physicochemical. As to conditions: pH 7.5.
Another data set concerns the target T7, BRPF2 BD/H4 (Homo sapiens, UniProt O95696).
T7 sequence (O95696 560-666): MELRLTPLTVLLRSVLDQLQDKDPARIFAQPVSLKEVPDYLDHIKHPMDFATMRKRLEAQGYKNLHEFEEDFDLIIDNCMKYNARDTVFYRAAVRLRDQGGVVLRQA
As to the kind of experiment: NanoBRET cellular assay. The class given is cell-based. As to conditions: HCT116 cells.

The subject of another data set is panel of 22 kinases. The data set is described as follows: Panel of 22 kinases. The following applies: data not shown. Format: biochemical.
Another data set concerns the target BRD4 BDs (Homo sapiens, UniProt O60885). The data set is described as follows: AlphaScreen. Format: binding.

In brackets after ≈: the same amount, converted by molar mass.

As a reminder, the IC50 is the concentration that gives 50% inhibition. The low end stands for greater potency in that assay, the high end for weaker potency in that assay. By Kd is commonly meant the constant that tells how readily two partners part at equilibrium. Read a high Kd as a looser complex. In general, Papp B→A refers to the apparent permeability from the basolateral to the apical side of a cell layer. In the case of `Cc1cc2c(cc1N1C(=O)c3cccc4c(CCCO)ccc(c34)C1=O)n(C)c(=O)n2C` (racemic) [Compound 5, 6-(3-Hydroxypropyl)-2-(1,3,6-trimethyl-2-oxo-2,3-dihydro-1H-benzimidazol-5-yl)-1H-benzo[de]isoquinoline-1,3(2H)-dione], the IC50 was determined as 2.45 µM against BRPF3; 2.28 µM at BRPF1; 0.106 µM against TAF1L BD2; 3.15 µM on BRPF1 BD (BRPF1 IC50, TR-FRET); 5.55 µM at BRPF3 BD; 1.71 µM at CREBBP. Besides, the IC50 on BRPF1 BD/H4 was above 10 µM. This compound came in with a Kd on CREBBP BD of 1.39 µM. Besides, the “blood clearance as share of hepatic blood flow” value in data set [1] is “ca. 17%”. Moreover, the CLblood was 12.2 mL/min/kg in data set [1] (in vivo); below 0.017 mL/min/kg in data set [2]; below 0.017 mL/min/kg in data set [3]; 3.17 mL/min/kg in [4]; 2.5 mL/min/kg in [5]; 63.3 mL/min/kg in [6]. The Fmax in data set [2] and in data set [3] was 100% throughout. Besides, the apparent permeability from basolateral to apical (Papp B→A) at 2 h, 2 μM in “Caco2 permeability assay” is 19.1 ×10⁻⁶ cm/s. The “inhibition or stimulation in LeadProfilingScreen” value with 68 potential targets was at most 25%. In addition, in data set [7], the “inhibition in kinase panel” value is recorded as “less than 50%”.

`Cc1cc2c(cc1N1C(=O)c3cccc4c(CCCO)ccc(c34)C1=O)n(C)c(=O)n2C` (single isomer, unassigned) [atropisomer 1, (−)-6-(3-Hydroxypropyl)-2-(1,3,6-trimethyl-2-oxo-2,3-dihydro-1H-benzimidazol-5-yl)-1H-benzo[de]isoquinoline-1,3(2H)-dione] registered an IC50 at BRPF1 BD (BRPF1 IC50, TR-FRET) of 5.86 µM.

The compound `Cc1cc2c(cc1N1C(=O)c3cccc4c(CCCO)ccc(c34)C1=O)n(C)c(=O)n2C` (single isomer, unassigned) [atropisomer 2, (+)-6-(3-Hydroxypropyl)-2-(1,3,6-trimethyl-2-oxo-2,3-dihydro-1H-benzimidazol-5-yl)-1H-benzo[de]isoquinoline-1,3(2H)-dione] registered a half-maximal inhibitory concentration (IC50) on BRPF1 BD (BRPF1 IC50, TR-FRET) of 5.49 µM.

As usually defined, the solubility is how much of the substance goes into solution per volume. By chromatographic logD is commonly meant a lipophilicity value derived from retention on a column. With `Cn1c(=O)n(C)c2cc(N3C(=O)c4cccc5cccc(c45)C3=O)ccc21` [Compound 6], in the data set on Caco2 cells, the “permeability profile in Caco2 cells” value was “excellent permeability profile”. Also, the IC50 was above 20 µM at BRPF1 BD (BRPF1: inactive up to concentration, TR-FRET, HTS hit dose-response) and above 20 µM on BRPF3 BD. This compound had a solubility at 24 h in [8] of 3.7 µg/mL (≈ 10.4 µM). The same compound came in with a chromatographic logD in data set [9] of 2.1.

For the compound `Cc1cc2c(cc1N1C(=O)c3cccc4cccc(c34)C1=O)n(C)c(=O)n2C` [Compound 7, 2-(1,3,6-Trimethyl-2-oxo-2,3-dihydro-1H-benzimidazol-5-yl)-1H-benzo[de]isoquinoline-1,3(2H)-dione], half-maximal inhibition at BRPF2 BD/H4 (IC50) required 0.47 µM.

As to `Cc1cc2c(cc1N1C(=O)c3cccc4c(Cl)ccc(c34)C1=O)n(C)c(=O)n2C` [Compound 13, 6-Chloro-2-(1,3,6-trimethyl-2-oxo-2,3-dihydro-1H-benzimidazol-5-yl)-1H-benzo[de]isoquinoline-1,3(2H)-dione], the “cellular activity for BRPF1” value at BRPF1 BD/H4 (NanoBRET) was “no activity”.

For `Cn1c(=O)[nH]c2cc(N3C(=O)c4cccc5c(CCCO)ccc(c45)C3=O)ccc21` [Compound 31, 6-(3-Hydroxypropyl)-2-(1-methyl-2-oxo-2,3-dihydro-1H-benzimidazol-5-yl)-1H-benzo[de]isoquinoline-1,3(2H)-dione], the “activity for BRPF3” value at BRPF3 (AlphaScreen) is “no activity”. Also, the “no activity up to, panel of 22 kinases” value in the data set on panel of 22 kinases was above 10 µM. Also, the “activity for BRD4 BDs” value on BRD4 BDs is reported as “no activity”.
